Paper PMC6028883, “A highly glucose-tolerant GH1 β-glucosidase with greater conversion rate of soybean isoflavones in monogastric animals” (Journal of Industrial Microbiology & Biotechnology, 2018)

Experiments:
[1] = test system: O=[N+]([O-])c1ccc(O[C@@H]2O[C@H](CO)[C@@H](O)[C@H](O)[C@H]2O)cc1; assay: initial rate, Lineweaver-Burk plot; type: biochemical, Alicyclobacillus sp. A4; conditions: pH 6.5, 55 °C, 5 min, 0.2-1.5 mM pNPG
AsBG1 = AsBG1 (Alicyclobacillus sp. A4, UniProt A0A220YLM5); assay: inhibition of cellobiose hydrolysis, ion exchange chromatography; type: biochemical; conditions: read-out: % inhibition at 10 mM
Bgl3A = target: T1, Bgl3A (Evansstolkia leycettana, UniProt A0A1B0VFN7); assay: inhibition of daidzin hydrolysis, HPLC; type: biochemical; conditions: 0.5 mM daidzin, glucose printed as 10 mM but 80 mM stock diluted fourfold; pH 6.5, 37 °C, 5 min
T1 construct: laboratory stock enzyme
T1 sequence (A0A1B0VFN7 entry or part of it): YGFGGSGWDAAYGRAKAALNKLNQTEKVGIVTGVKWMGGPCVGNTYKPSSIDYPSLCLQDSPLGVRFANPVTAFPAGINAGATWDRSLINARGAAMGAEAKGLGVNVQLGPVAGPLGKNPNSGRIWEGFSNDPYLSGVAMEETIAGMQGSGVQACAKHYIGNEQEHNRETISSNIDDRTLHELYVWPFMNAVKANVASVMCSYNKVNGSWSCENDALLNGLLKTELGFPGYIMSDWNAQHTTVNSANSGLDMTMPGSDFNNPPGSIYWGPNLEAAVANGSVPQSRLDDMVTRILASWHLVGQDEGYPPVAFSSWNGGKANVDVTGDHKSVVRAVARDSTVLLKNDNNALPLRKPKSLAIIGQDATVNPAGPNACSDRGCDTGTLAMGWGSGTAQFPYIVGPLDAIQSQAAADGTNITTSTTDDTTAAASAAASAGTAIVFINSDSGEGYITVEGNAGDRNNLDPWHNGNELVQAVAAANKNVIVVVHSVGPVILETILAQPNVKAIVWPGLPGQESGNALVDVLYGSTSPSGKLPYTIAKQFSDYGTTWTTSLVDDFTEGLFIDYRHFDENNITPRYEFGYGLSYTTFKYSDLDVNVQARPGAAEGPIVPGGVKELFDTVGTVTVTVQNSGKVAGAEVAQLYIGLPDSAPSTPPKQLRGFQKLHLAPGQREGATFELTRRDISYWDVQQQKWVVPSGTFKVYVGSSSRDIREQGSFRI

Sequence of AsBG1 (A0A220YLM5 1-454 limits assumed): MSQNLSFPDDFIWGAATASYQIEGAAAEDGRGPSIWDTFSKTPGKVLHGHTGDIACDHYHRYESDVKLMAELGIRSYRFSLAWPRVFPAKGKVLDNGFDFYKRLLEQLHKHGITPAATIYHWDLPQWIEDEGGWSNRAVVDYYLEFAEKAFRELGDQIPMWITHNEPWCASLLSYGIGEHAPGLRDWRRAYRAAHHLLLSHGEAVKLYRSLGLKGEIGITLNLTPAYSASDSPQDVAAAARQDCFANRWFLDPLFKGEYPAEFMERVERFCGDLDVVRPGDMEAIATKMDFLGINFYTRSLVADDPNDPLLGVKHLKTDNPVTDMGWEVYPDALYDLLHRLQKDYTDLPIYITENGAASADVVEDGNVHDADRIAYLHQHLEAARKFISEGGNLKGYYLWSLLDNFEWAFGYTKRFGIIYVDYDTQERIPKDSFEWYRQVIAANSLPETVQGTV

Molecule: AsBG1 (Alicyclobacillus sp. A4)
- Km [1]: 400 µM

Molecule: OC[C@H]1OC(O)[C@H](O)[C@@H](O)[C@@H]1O (stereo partly drawn) [glucose]
- inhibition at 10000 µM (AsBG1): ~60%
- inhibition of daidzin hydrolysis, HPLC (Bgl3A): the conversion efficiency of daidzin by Bgl3A was seriously impeded by glucose
